In PMC6212948, “Fucoxanthin-Containing Cream Prevents Epidermal Hyperplasia and UVB-Induced Skin Erythema in Mice” (Marine Drugs, 2018):

Tests used:
[1] = system: TPA-induced epidermal hyperplasia in mice dorsal skin; assay: TPA-induced epidermal hyperplasia model; assay type: in vivo, Swiss CD-1 mice; settings: topical cream 100 mg per site containing 200 µg drug, vs TPA-cream group
Protocol: Female Swiss CD-1 mice (n = 10 per group) were used to study the effect of FX on TPA-induced hyperplasia in mice dorsal skin. Briefly, the dorsal hair of animals was removed with an electric clipper and treated with depilatory cream (Deliplus, Barcelona, Spain). After 24 h, the animals were assigned to the different groups: Sham (vehicle: 100 mg of cream with 0.2% of ethanol); TPA control group; TPA-Cream (vehicle: 100 mg of cream with 0.2% of ethanol); Dex-cream (100 mg of cream per site, containing 200 µg of Dex dissolved in ethanol at 10 µg/mL); FX-cream formulation (100 mg of cream per site, containing 200 µg of FX dissolved in ethanol at 10 µg/mL). The creams were applied to the dorsal skin in an area of 1 cm^2 using a syringe, during 2 days before the hyperplasia induction. Mice were anesthetized with ketamine (100 mg/kg of animal) and diazepam (5 mg/kg of animal) during treatments and TPA challenge. On day 4, TPA (2 nmol of TPA, dissolved in 20 µL of ethanol) was topically applied to the same areas on all groups except in sham group. After 1 h, FX-cream, the Dex-cream or vehicle were administered following the mentioned protocol. This procedure was replicated during two consecutive days. After 24 h of the last TPA dorsal application (day 7), mice were sacrificed by cervical dislocation and punch biopsies from the treated dorsal skin were weighed to evaluate edema, before further processing for histology and biochemical parameters.
The measurement of MPO activity was used as a marker of neutrophil infiltration. The tissue was thawed, weighed and homogenized in 10 volumes of 50 mM-PBS (pH 7.4). Then, the homogenate was centrifuged at 20,000× g for 20 min at 4 °C and the pellet was again homogenized in 10 volumes of 50 mM-PBS (pH 6) containing hexadecyl trimethylammonium bromide (0.5%) and 10 mM-EDTA. This homogenate was subjected to one cycle of freezing/thawing and sonicated. […] The changes in absorbance were monitorized at 450 nm with a microplate reader (Labysystem Multiskan EX, Thermo Scientific, New York, NY, USA). MPO activity unit was defined as the amount of enzyme present that produced a change in absorbance of 1.0 unit/min at 37 °C in the final reaction volume containing acetate. Results are expressed as units/mg tissue.
The samples were fixed in paraformaldehyde, dehydrated by increasing concentrations of ethanol and embedded in paraffin. […] Epidermal thickness was measured by using Scientific Imaging Systems (Biophotonics ImageJ Analysis Software; National Institutes of Health, Rockville, MD, USA).
COX-2 expression was measured by immunohistochemical analysis by using a streptavidin-biotin-peroxidase method. […]

[2] = system: HaCaT human keratinocytes; assay: SRB cell viability assay, HaCaT keratinocytes; assay type: cell-based; settings: for % Viability HaCaT keratinocytes (24 h): mean ± ES, n = 3
Protocol: (§1) The THP-1 human monocytic leukemia cell line and HaCaT human keratinocytes were obtained from the American Type Culture Collection (ATCC, Manassas, VA, USA). THP-1 cells were cultured in RPMI 1640 medium (GIBCO, Grand Island, New York, NY, USA) containing 10% heat-inactivated fetal bovine serum (FBS), 100 U/mL penicillin and 100 μg/mL streptomycin. HaCaT human keratinocytes were maintained in high glucose Dulbecco’s modified Eagle’s medium (DMEM, GIBCO, Grand Island, New York, NY, USA). Both cell lines were grown in a humidified atmosphere containing 5% CO2 at 37 °C [20].
(§2) SRB assay was used for determining the viability of THP-1 macrophages and HaCaT cells upon exposure to FX (Sigma-Aldrich, St. Louis, MO, USA). Firstly, for differentiation into macrophages, THP-1 cells were seeded into 96-well plates at 10^4 cells/well in presence of phorbol 12-myristate 13-acetate (PMA, Sigma-Aldrich, St. Louis, MO, USA) for a final concentration of 0.2 µM for 72 h in 96-well plates and HaCaT cells were seeded into 96-well plates in the growth medium at 10^4 cells/well for 24 h to ensure the adherence. Both cellular types were incubated in a humidified atmosphere of 5% CO2 at 37 °C. After that, cells were treated with FX at final concentrations range of 10–100 µM in DMSO 0.1% (v/v) and the cytotoxicity was measured after 24, 48 and 72 h of incubation. The absorbance was determined at 492 nm in a microplate spectrophotometer (Sinergy HT, Biotek®, Bad Friedrichshall, Germany).

[3] = system: UVB-irradiated HaCaT cells; assay: Intracellular ROS (DCF-DA assay) in UVB-irradiated HaCaT keratinocytes; assay type: cell-based, human; settings: 1 h prior to UVB 50 mJ/cm^2, 30 min after irradiation, vs UVB
Protocol: (§3) Human keratinocytes were exposed to UVB radiation as previously described. Briefly, the cells were grown to confluence and were treated with different concentrations of FX (10, 30 and 50 µM) for 1 h. Then, the medium was removed and a thin layer of PBS was added. Cells were exposed to a single dose of UVB radiation (50 mJ/cm^2) for 1 min. The UVB source was a CL-1000M UV Crosslinker (UVP, Upland, CA, USA), which was used to deliver an energy spectrum of UVB light (280–315 nm; peak intensity, 302 nm). After UVB irradiation, the cells were supplied with fresh complete medium and incubated for 24 h.
For quantification of ROS in HaCaT cells, the DCF-DA assay was employed. HaCaT cells were seeded in nin96-well plates (10^4 cells/well). Non-irradiated cells were used as negative control. After 24 h, cells were treated with FX (10, 30 and 50 µM) for 1 h and then, were exposed to UVB. Post irradiation, cells were incubated with 2′,7′-dichlorodihydrofluorescein diacetate (DCFH-DA) solution (5 mg/mL) in PBS for 30 min [63]. The fluorescence of the 2′,7′-dichlorofluorescein (DCF) product was determined using a fluorescence plate reader (Sinergy HT, Biotek®, Bad Friedrichshall, Germany) at 485 nm for excitation and 535 nm for emission.

[4] = system: IL-6 and IL-8 production in TNF-α-stimulated HaCaT keratinocytes; assay: IL-6 and IL-8 production in TNF-α-stimulated HaCaT keratinocytes (ELISA); assay type: cell-based, human; settings: all concentrations tested (10, 30 and 50 μM), 1 h pre-treatment, TNF-α 10 ng/mL 24 h, vs TNF-α group
Protocol: HaCaT cells were seeded in 6-well plates (5 × 10^5 cells/well). After 24 h, cells were washed twice (PBS, 4 °C) and medium containing FX (10, 30 and 50 μM) or Dex (1 μM) was added for 1 h, and then cells were stimulated with TNF-α (10 ng/mL) except for control group. After 24 h, supernatant fluids were collected and stored −80 °C until measurements. Commercial enzyme-linked immunosorbent assay (ELISA) kit (Diaclone GEN-PROBE, Besançon, France) was used to quantify IL-6 and IL-8 according to the manufacturer’s protocol.

[5] = system: TNF-α production in LPS-stimulated THP-1 macrophages; assay: TNF-α production in LPS-stimulated THP-1 macrophages (ELISA); assay type: cell-based, human
Protocol: THP-1 monocytes were differentiated into macrophages in 96-well plates (10^4 cells/well). Then, cells were incubated for 1 h with FX (10, 30 and 50 µM). The positive reference compound used was Dex (1 µM) (Sigma-Aldrich, St. Louis, MO, USA). Inflammatory response was induced by addition of LPS (1 μg/mL) except for control group. After 24 h, commercial enzyme-linked immunosorbent assay (ELISA) kit (Diaclone GEN-PROBE, Besançon, France) was used to quantify TNF-α according to the manufacturer’s protocol.

[6] = system: UVB-irradiated HaCaT cells; assay: LDH assay in UVB-irradiated HaCaT keratinocytes; assay type: cell-based, human; settings: 10, 30 and 50 μM, 1 h prior to UVB 50 mJ/cm^2, 24 h, dose-dependent
Protocol: as §3
The measure of cytosolic enzyme LDH is one of the commonly used methods for assessing loss of cellular membrane integrity. The assay is based on the conversion of […] in the presence of LDH with the consequence oxidation of NADH as previously described. HaCaT cells were seeded in 6-well plates (5 × 10^5 cells/well). After 24 h, cells were treated with FX (10, 30 and 50 μM) for 1 h and then, were irradiated with UVB. After 24 h, cell-free supernatants and cell lysates were mixed in a 96-well plate and the absorbance was read by using a microplate reader system (Sinergy HT, Biotek®, Bad Friedrichshall, Germany). LDH leakage was estimated calculating the LDH activity in the cell-free medium and LDH activity in lysates ratio. […]

[7] = system: IL-6 production in UVB-exposed HaCaT keratinocytes; assay: IL-6 production in UVB-exposed HaCaT keratinocytes (ELISA); assay type: cell-based, human; settings: 1 h prior to UVB, 24 h after exposure, vs UVB
Protocol: as §3
HaCaT cells (5 × 10^5 cells/well) were seeded in 6-well plates. After 24 h, cells were treated with FX (10, […] and 50 μM) for 1 h and then, were exposed to UVB. After 24 h, supernatant fluids were collected and ELISA kit (Diaclone GEN-PROBE, Besançon, France) was employed to quantify IL-6 according to the manufacturer’s protocol. The absorbance at 450 nm was read by a microplate reader (Labysystem Multiskan EX, Thermo Scientific, New York, NY, USA).

[8] = cited from earlier work
[9] = system: THP-1 macrophages; assay: SRB cell viability assay, THP-1 macrophages; assay type: cell-based, human; settings: for % Viability THP-1 macrophages (24 h): mean ± ES, n = 3
Protocol: as §1, §2

[10] = 24 h after treatment, SRB assay

**Q.** For `C[C@@H]1C[C@H]2[C@@H]3CCC4=CC(=O)C=C[C@]4(C)[C@@]3(F)[C@@H](O)C[C@]2(C)[C@@]1(O)C(=O)CO` [Dex, dexamethasone], which “epidermal hyperplasia (epidermal thickness, H&E)” value [1] is on record?
**A.** significant improvement

**Q.** What about the “myeloperoxidase (MPO) activity in skin homogenates” value [1] of the same compound?
**A.** markedly diminished

**Q.** And the “epidermal COX-2-positive stained cells (immunohistochemistry)” value ([1]; p < 0.001)?
**A.** confirmed the anti-inflammatory effect

**Q.** What about the “skin edema (weight of 1 cm^2 punch biopsy)” value ([1]; p < 0.001) of the same compound?
**A.** significantly reduced

**Q.** Which results are given for `CC(=O)O[C@H]1CC(C)(C)C(=C=C/C(C)=C/C=C/C(C)=C/C=C/C=C(C)/C=C/C=C(\C)C(=O)C[C@@]23O[C@]2(C)C[C@@H](O)CC3(C)C)[C@](C)(O)C1` [FX, fucoxanthin]?
**A.** % Viability HaCaT keratinocytes (24 h) ([2]; 10 μM): 111.2 ± 2.1%; % Viability HaCaT keratinocytes (24 h) ([2]; 30 μM): 105.2 ± 4.0%; % Viability HaCaT keratinocytes (24 h) ([2]; 50 μM): 103.9 ± 3.2%; % Viability HaCaT keratinocytes (24 h) ([2]; 100 μM): 101.5 ± 2.2%; IC50 [2, 10]: > 100 µM; reduction of ROS levels ([3]; 10 μM): 23%; reduction of ROS levels ([3]; 30 μM): 31%; reduction of ROS levels ([3]; 50 μM): 32%; IL-6 production [4]: significantly reduced; IL-8 production [4]: significantly reduced; TNF-α production ([5]; 50 µM pre-treatment, LPS-stimulated, p < 0.001, similar values to Dex 1 μM): significant reduction; TNF-α production ([5]; all concentrations tested (10, 30 and 50 μM), 1 h pre-treatment, LPS 1 μg/mL 24 h, vs LPS group): significantly reduced; UVB-induced mortality (LDH activity) [6]: significantly decreased; inhibition of IL-6 levels ([7]; 10 μM): 23%; inhibition of IL-6 levels ([7]; 30 μM): 31%; inhibition of IL-6 levels ([7]; 50 μM): 59%; partition coefficient (log P) [8]: 6.83–7.54; % Viability THP-1 macrophages (24 h) ([9]; 10 μM): 97.5 ± 2.0%; % Viability THP-1 macrophages (24 h) ([9]; 30 μM): 96.5 ± 1.2%; % Viability THP-1 macrophages (24 h) ([9]; 50 μM): 103.7 ± 1.1%; % Viability THP-1 macrophages (24 h) ([9]; 100 μM): 90.7 ± 0.5%; IC50 [9, 10]: > 100 µM
